Patent US9988380B2, “Quorum sensing inhibitors” (priority 2013, dated 2018)

How the values were obtained:
[1] = tested on: pqsA-gfp(ASV) expression; assay: Inhibition of the PQS QS system, pqsA-gfp(ASV) reporter in PAO1 wild-type and lasR mutant; type: cell-based, P. aeruginosa
Procedure: Inhibition of the Rhl and PQS QS systems in wild-type PAO1 and PAO1 lasR mutant. Wild-type P. aeruginosa PAO1 strains harboring either the rhlA-gfp(ASV) reporter or the pqsA-gfp(ASV) reporter, and a P. aeruginosa PAO1 lasR mutant harboring either the rhlA-gfp(ASV) reporter or the pqsA-gfp(ASV) reporter were used for this experiment (Refer to FIG. 11 for strain information). Overnight cultures of these four strains were diluted 100-fold in ABTGC media within 96-well microtitre plates to a final volume of 200 μL per well. Each of the five QSIs was added in triplicate to a final concentration of 50 μM. 0.5% DMSO was used as a negative control. The microtitre plate was incubated at 37° C. in a Tecan Infinite 200 Pro plate reader where GFP and OD600 readings were measured at 15 min intervals.
Effect of QSIs on Rhl and Pqs Quorum-Sensing Systems. In order to address the problem of the specificity of present compounds, the five identified QSI compounds were tested to see if they had any effect on the rhl and pqs systems. The five QSIs were tested against a PAO1 wild-type and a PAO1 lasR mutant harboring either the rhlA-gfp (ASV) bioreporter or the pqsA-gfp (ASV) bioreporter. The rhlA system is dependent on the RhlR/I system. By doing so, we were able to determine if a QSI is able to inhibit the other two QS systems (i.e. rhl and pqs) in a lasR-dependent/independent manner (FIG. 8).

[2] = tested on: P. aeruginosa PAO1 strain; assay: iTRAQ-based quantitative proteomic analysis; type: cell-based; details: 25 μM G1
Procedure: iTRAQ-Based Proteomics Analyses for G1. Isobaric tag for relative and absolute quantitation (iTRAQ)-based proteomic analysis was used to study the changes in protein expression of the P. aeruginosa PAO1 strain in response to the addition of 25 μM of G1. Proteomics experiments were performed at the Proteomic Core Facility of the Biological Research Center, School of Biological Sciences, Nanyang Technological University, Singapore. A full description of the proteomics workflow is given below.
Protein preparation and digestion. The P. aeruginosa PAO1 strain was grown in ABTG media. Sub-lethal concentrations of G1 (25 μM) were added to independent P. aeruginosa PAO1 cultures respectively. Cultures were grown in LB medium at 37° C. with shaking until late log phase (OD 600 nm=1.0) before harvesting. After harvesting, cell pellets were washed with 1×PBS and resuspended in 2 ml of lysis buffer containing 0.5M TEAB and 0.1M SDS. The cells were ruptured by sonication, and the cell debris was removed by centrifugation at 4° C. at 16000×g for 15 min. 200 μg of proteins from different growth conditions were dissolved in equal volume of sample buffer (Invitrogen) supplemented with 0.5% 2-mercaptoethanol and denatured by boiling at 95° C. for 5 min. 1D gel electrophoresis was carried out using 10% SDS-PAGE for in-gel digestion.
Proteins were first reduced using 5 mM Tris-(2-carboxyethyl)phosphine (TCEP) for 1 h at 60° C., followed by blocking of cysteine residues by 10 mM methyl methanethiosulfate (MMTS) for 30 min at room temperature in the dark. Trypsin was added at a ratio of 1:50 (trypsin/sample). It was then incubated at 37° C. overnight. The tryptic peptides were extracted by 50% ACN/5% Acetic Acid from gel for 3 times and were desalted using Sep-Pak C18 cartridges (Waters, Milford, Mass.) and dried in a SpeedVac (Thermo Electron, Waltham, Mass.). All chemicals were purchased from Sigma-Aldrich unless stated otherwise.
iTRAQ labeling. The iTRAQ labeling of the tryptic peptides was performed using 4-plex iTRAQ reagent kit (Applied Biosystems, Foster City, Calif.), according to the manufacturers protocol. 200 μg of peptides from each condition were individually labeled with respective isobaric tags: control sample with 114, and the G1 treated sample with 115. After 2 h incubation, the samples were quenched by water, desalted using C18 solid phase extraction cartridge, and then vacuum-centrifuged to dryness. […] The HPLC chromatograms were recorded at 280 nm and fractions were collected online using automated fraction collector. 20 fractions were collected and concentrated using vacuum centrifuge and reconstituted in 3% ACN with 0.1% formic acid for LC-MS/MS analysis.
LC-MS/MS. The peptides were separated and analyzed on a home-packed nanobore C18 column (15 cm×75 μm; Reprosil-Pur C18-AQ, 3 μm, Dr Maisch, Germany) with a Picofritnanospray tip (New Objectives, Woburn, Mass., USA) on a Tempo™ nano-MDLC system coupled with a QSTAR® Elite Hybrid LC-MS/MS system (Applied Biosystems). Peptides from each fraction were analyzed in triplicate by LC-MS/MS over a gradient of 90 min. The flow rate of the LC system was set to a constant 300 nl/min. Data acquisition in QSTAR Elite was set to positive ion mode using Analyst® QS 2.0 software (Applied Biosystems). MS data was acquired in positive ion mode with a mass range of 300-1600 m/z. Peptides with +2 to +4 charge states were selected for MS/MS. For each MS spectrum, the three most abundant peptides above a five-count threshold were selected for MS/MS and dynamically excluded for 30 s with a mass tolerance of 0.03 Da. Smart information-dependent acquisition was activated with automatic collision energy and automatic MS/MS accumulation. The fragment intensity multiplier was set to 20 and maximum accumulation time was 2 s.
Data analysis. […]

**Q.** What does the source list for `N=c1[nH]c(=O)c2nn[nH]c2[nH]1` [Compound G1, 5-imino-4,6-dihydro-3H-1,2,3-triazolo[5,4-d]pyrimidin-7-one]?
**A.** inhibition of pqsA-gfp expression ([1]; PAO1 lasR mutant, 50 μM QSI): 24.4%; inhibition of pqsA-gfp expression ([1]; wild-type PAO1, 50 μM QSI): 57.5%; abundance of protease IV (PA4175), 115:114 [2]: 0.29; change in abundance of pyoverdine chromophore synthetase (pvdL; PA2424) [2]: −0.73 fold; change in abundance of pyoverdine synthetase D (pvdD; PA2399) [2]: −0.89 fold; elastase (lasB; PA3724) in the proteomics result [2]: not identified as down-regulated; number of proteins with abundance upregulated ([2]; 115:114 score at least 1.5): 19; number of proteins with abundance down-regulated ([2]; 115:114 score below 0.66): 27; number of proteins significantly affected ([2]; p-value (115:114) cut-off 0.05): 46
